{"source": "patent US11022604B2", "about": "“Dock derived compound against laminin receptor (37 LR) and uses thereof” (Purdue Research Foundation, priority 2017, dated 2021)", "system": "c-MYC binding site luciferase reporter in PC-3 cells", "test": "c-MYC binding site luciferase reporter assay", "format": "cell-based", "settings": "24 hours", "experimental": "FIG. 9. Luciferase promoter Assay in PC-3 cells. PC-3 cells were treated with 1, 10, 50 μM C3 or DMSO control for 24 hours after a 24 transfection with Myc-Luc and B-Gal plasmid to normalize for transfection efficiency (n=6, mean±SEM). Relative light units calculated by normalizing Myc-Luc signal to B-gal signal. A one-way ANOVA was used for statistical analysis (P<0.05). The linear trend was also significant (pose test for linear trend, p, 0.05).\nWound Healing Assay. PC-3 cells were seeded in 6 well plates at 3×10^5 cells per well in complete media until the cells reached confluency. Three horizontal and three vertical scratches were made in the confluent monolayers using a standard 200 μL pipette tip and cellular debris were removed by washing with 1×DPBS three times. 1×RPMI-1640 supplemented with C3 or DMSO was added and cells were incubated for 48 hours as described previously. […] Images were uploaded and analyzed for scratch geometry using the tscratch program (96). First, global thresholding was performed, then individual images were manually inspected for single image threshold adjustment and scratch geometries were quantified. […] The samples were analyzed using the Dionex UltiMate 3000 RSLC Nano System coupled to the Q Exactive™ HF Hybrid Quadrupole-Orbitrap MS (Thermo Scientific). […]", "data": [{"smiles": "O=C(c1cc(F)cc2c1OCOC2)N1CCN(C2c3ccccc3-c3ccccc32)CC1", "note": "[Compound C3, [4-(9h-fluoren-9-yl)piperazino](6-fluoro-4h-1,3-benzodioxin-8-yl)methanone]", "values": [{"measurement": "reduction of c-myc binding activity (luciferase reporter)", "setting": "PC-3, 50 μM", "result": 36, "unit": "%"}, {"measurement": "effect on c-myc luciferase reporter activity", "setting": "PC-3, 1 and 10 μM", "result": "no significant effect"}]}]}
